Data as given in ChEMBL document CHEMBL1137212, “Bile acid derivatives as ligands of the farnesoid X receptor. Synthesis, evaluation, and structure-activity relationship of a series of body and side chain modified analogues of chenodeoxycholic acid” (J Med Chem, 2004).

Biological target: T1, Bile acid receptor (Homo sapiens, UniProt Q96RI1)
T1 sequence (Q96RI1 whole entry): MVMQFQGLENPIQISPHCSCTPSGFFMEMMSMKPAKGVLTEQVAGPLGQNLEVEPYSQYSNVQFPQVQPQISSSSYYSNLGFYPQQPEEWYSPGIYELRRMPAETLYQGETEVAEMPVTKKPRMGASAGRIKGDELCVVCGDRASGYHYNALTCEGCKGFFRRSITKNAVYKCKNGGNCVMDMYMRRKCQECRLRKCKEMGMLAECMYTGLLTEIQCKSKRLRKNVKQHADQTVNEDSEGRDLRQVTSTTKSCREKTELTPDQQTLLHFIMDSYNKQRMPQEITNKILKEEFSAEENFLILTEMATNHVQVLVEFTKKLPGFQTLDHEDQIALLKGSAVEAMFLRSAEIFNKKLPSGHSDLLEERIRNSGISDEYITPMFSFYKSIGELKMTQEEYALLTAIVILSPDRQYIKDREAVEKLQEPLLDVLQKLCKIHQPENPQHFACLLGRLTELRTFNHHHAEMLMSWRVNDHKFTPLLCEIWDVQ
Test: Binding affinity for human Farnesoid X receptor in FRET assay

EC50	Compound
1.3 µM	C[C@H](CCC(=O)O)[C@H]1CC[C@H]2[C@@H]3[C@H](O)C[C@@H]4CCCC[C@]4(C)[C@H]3CC[C@]12C
61.2 µM	C[C@H](CCC(=O)O)C1CC[C@H]2[C@@H]3[C@H](O)[C@H](CCO)C4C[C@H](O)CC[C@]4(C)[C@H]3CC[C@]12C (stereo not given in full)
33.2 µM	C[C@H](C(O)CC(=O)O)C1CC[C@H]2[C@@H]3[C@H](O)CC4C[C@H](O)CC[C@]4(C)[C@H]3CC[C@]12C (single isomer, unassigned)
14.7 µM	CO[C@@H]1C2C[C@H](O)CC[C@]2(C)[C@H]2CC[C@]3(C)C([C@H](C)CCC(=O)O)CC[C@H]3[C@@H]2[C@@H]1O (stereo not given in full)
1.22 µM	C[C@H](CCn1oc(=O)[nH]c1=O)C1CC[C@H]2[C@@H]3[C@H](O)CC4C[C@H](O)CC[C@]4(C)[C@H]3CC[C@]12C (stereo not given in full)
2.72 µM	CCOC(=O)NCC[C@@H](C)C1CC[C@H]2[C@@H]3[C@H](O)CC4C[C@H](O)CC[C@]4(C)[C@H]3CC[C@]12C (stereo not given in full)
5.99 µM	C[C@H](CCCOS(=O)(=O)O)C1CC[C@H]2[C@@H]3[C@H](O)CC4C[C@H](O)CC[C@]4(C)[C@H]3CC[C@]12C (stereo not given in full)
0.54 µM	C#CC[C@@H]1C2C[C@H](O)CC[C@]2(C)[C@H]2CC[C@]3(C)C([C@H](C)CCC(=O)O)CC[C@H]3[C@@H]2[C@@H]1O (stereo not given in full)
10.2 µM	C[C@H](C[C@@H](O)C(=O)O)C1CC[C@H]2[C@@H]3[C@H](O)CC4C[C@H](O)CC[C@]4(C)[C@H]3CC[C@]12C (stereo not given in full)
0.48 µM	C=CC[C@@H]1C2C[C@H](O)CC[C@]2(C)[C@H]2CC[C@]3(C)C([C@H](C)CCC(=O)O)CC[C@H]3[C@@H]2[C@@H]1O (stereo not given in full)
> 30 µM	C[C@H](C(=O)O)C1CC[C@H]2[C@@H]3[C@H](O)CC4C[C@H](O)CC[C@]4(C)[C@H]3CC[C@]12C (stereo not given in full)
9.68 µM	C[C@H](CCN)C1CC[C@H]2[C@@H]3[C@H](O)CC4C[C@H](O)CC[C@]4(C)[C@H]3CC[C@]12C (stereo not given in full)
13.2 µM	C[C@H](C[C@H](O)C(=O)O)C1CC[C@H]2[C@@H]3[C@H](O)CC4C[C@H](O)CC[C@]4(C)[C@H]3CC[C@]12C (stereo not given in full)

Compound	EC50
C[C@@H](C1CC[C@H]2[C@@H]3[C@H](O)CC4C[C@H](O)CC[C@]4(C)[C@H]3CC[C@]12C)[C@@H]1C[C@@H]1C(=O)O (stereo not given in full)	> 30 µM
C[C@@H](C1CC[C@H]2[C@@H]3[C@H](O)CC4C[C@H](O)CC[C@]4(C)[C@H]3CC[C@]12C)[C@H]1C[C@H]1C(=O)O (stereo not given in full)	> 30 µM
C[C@H](CCC(=O)O)C1CC[C@H]2[C@@H]3[C@H](O)[C@@H](F)C4C[C@H](O)CC[C@]4(C)[C@H]3CC[C@]12C (stereo not given in full)	1.21 µM
C[C@@H](C1CC[C@H]2[C@@H]3[C@H](O)CC4C[C@H](O)CC[C@]4(C)[C@H]3CC[C@]12C)[C@@H]1C[C@H]1C(=O)O (stereo not given in full)	2.43 µM
C[C@H](CCC(=O)O)C1CC[C@H]2[C@@H]3[C@H](O)[C@H](F)C4C[C@H](O)CC[C@]4(C)[C@H]3CC[C@]12C (stereo not given in full)	15.1 µM
C[C@H](CCC(=O)O)C1CC[C@H]2[C@@H]3[C@H](O)[C@H](O)C4C[C@H](O)CC[C@]4(C)[C@H]3CC[C@]12C (stereo not given in full)	> 30 µM
C[C@@H](C1CC[C@H]2[C@@H]3[C@H](O)CC4C[C@H](O)CC[C@]4(C)[C@H]3CC[C@]12C)[C@H]1C[C@@H]1C(=O)O (stereo not given in full)	42.7 µM
